Values of other authors as cited in the CATMoS acute toxicity set (Mansouri et al. 2021).

Experiment: rat acute oral toxicity
Details: in vivo
Excerpt: […]The data set underlying the modeling effort for this project was initially compiled by NICEATM and U.S. EPA’s CCTE. Briefly, LD50 data were collected from rat acute oral systemic toxicity tests, including limit tests, ranges/confidence intervals, and discrete LD50 values. The full data set included 21,200 LD50 entries for 15,688 substances. […] Data were reviewed to ensure that LD50 values with obvious errors in the extracted data such as unit conversion errors (e.g., comma and decimal separator misplacements) were either fixed or removed. After this review, 16,209 LD50 values remained. Many of the chemicals represented had multiple LD50 entries, requiring that a single representative value per Chemical Abstracts Service Registry Number (CASRN) identifier be defined to facilitate modeling efforts. Based on ATWG feedback and to define the representative LD50 as a protective value while accounting for the distribution across multiple LD50s, the median of the lowest quartile was computed using only discrete LD50 values (omitting limit test data and range and confidence interval data). A detailed summary of the data compilation is available online on the NICEATM webpage dedicated to the collaborative modeling project (NTP 2020).
[…][…] For categorical designations, limit test and range/confidence interval LD50 data were integrated wherever possible. As such, the number of chemicals with end point values/calls varies across the modeling end points (Table 3) based on whether chemicals had representative LD50 values and/or other data. If a chemical had both, the representative value was used to determine categorical calls rather than limit test data. Some data were useable only for certain end points and categories depending on the thresholds. For example, ranges that spanned multiple hazard categories were considered only for the binary (very toxic/nontoxic) end points and omitted from rendering a determination for hazard category assignment.
[…]The final data set comprising 11,992 chemicals was split into training and evaluation sets […], respectively. This process was performed semirandomly by ordering chemicals based on the five end points (categorical and continuous LD50 values) and partitioning every fourth record into the evaluation set accordingly. This approach was taken to ensure an equivalent distribution of the LD50 values and the different hazard categories between the training and the evaluation sets without supervised sampling of the chemicals based on structures (Figure 1A). The sources of the chemical structures were also kept equivalent between the two sets, with chemical structures obtained from DSSTox, being the highest quality, representing over 75% of each set (Figure 1B).

Q: With `Cc1cnc(C)cn1` as the compound, how does the LD50 read?
A: 1020 mg/kg

Q: For `CCOP(=S)(OCC)SC1CCOC1=O` (stereo not drawn), which LD50 is on record?
A: 1000 mg/kg

Q: With `OC(CCl)CNc1ccccc1NCC(O)CCl` (stereo not drawn) as the compound, how does the LD50 read?
A: 900 mg/kg

Q: Which LD50 does the source give for `CCCCNC(=O)OCC(C)(CCC)COC(N)=O` (stereo not drawn) here?
A: 1040 mg/kg

Q: For `CN(C)CCN(C)n1cc(-c2ccccc2)c2ccccc21`, which LD50 is on record?
A: 1160 mg/kg

Q: Which LD50 does the source give for `O=C1OC(OC(=O)c2cccnc2Nc2cccc(C(F)(F)F)c2)c2ccccc21` (stereo not drawn) here?
A: 12000 mg/kg

Q: Which LD50 does the source give for `CCOP(=S)(OCC)Oc1ccc2c3c(c(=O)oc2c1)CCCC3` here?
A: 67 mg/kg

Q: With `ClC1=C(Cl)C2(Cl)C(C(Cl)Cl)CC1(Cl)C2(Cl)Cl` (stereo not drawn) as the compound, how does the LD50 read?
A: 1600 mg/kg

Q: With `FCOC(C(F)(F)F)C(F)(F)F` as the compound, how does the LD50 read?
A: 10800 mg/kg

Q: With `CCC(CO)NC(=O)C1C=C2c3cccc4c3c(cn4C)CC2N(C)C1` (stereo not drawn) as the compound, how does the LD50 read?
A: 200 mg/kg

Q: For `CC1(C)S[C@@H]2[C@H](NC(=O)C3(N)CCCCC3)C(=O)N2[C@H]1C(=O)O`, which LD50 is on record?
A: 5010 mg/kg

Q: With `CCC(C)(C)c1ccc(OCCCCN)c(C(C)(C)CC)c1` as the compound, how does the LD50 read?
A: 800 mg/kg

Q: For `O=Cc1cccs1`, which LD50 is on record?
A: 915 mg/kg

Q: With `Nc1c(/N=N/c2ccc(-c3ccc(/N=N/c4cc(S(=O)(=O)O)c5ccccc5c4N)cc3)cc2)cc(S(=O)(=O)O)c2ccccc12` as the compound, how does the LD50 read?
A: 15200 mg/kg

Q: For `CCCCCNCCCCC`, which LD50 is on record?
A: 270 mg/kg

Q: With `NC(=O)N1c2ccccc2C=Cc2ccccc21` as the compound, how does the LD50 read?
A: 1960 mg/kg

Q: With `COc1ccc2c(c1)c(CC(=O)Oc1ccccc1C(=O)Oc1ccccc1C(=O)O)c(C)n2C(=O)c1ccc(Cl)cc1` as the compound, how does the LD50 read?
A: 63 mg/kg

Q: With `OCCNCCOc1ccc(C(=C(c2ccccc2)C(F)(F)F)c2ccccc2)cc1` as the compound, how does the LD50 read?
A: 1400 mg/kg

Q: For `CCCCCCCCCCCC(=O)N(CCO)CCO`, which LD50 is on record?
A: 2700 mg/kg

Q: With `FC(F)(F)c1nc2c(I)cc(Cl)cc2[nH]1` as the compound, how does the LD50 read?
A: 24 mg/kg

Q: With `CCC=CCC=CCC=CCC=CCC=CCC=CCCC(=O)O` as the compound, how does the LD50 read?
A: 10000 mg/kg

Q: Which LD50 does the source give for `O=C(CCl)c1ccc(O)cc1` here?
A: 230 mg/kg

Q: Which LD50 does the source give for `Cc1[nH]c(=O)n(C(C)C)c(=O)c1Br` here?
A: 3400 mg/kg

Q: With `CCCOCCN(C(=O)CCl)c1c(CC)cccc1CC` as the compound, how does the LD50 read?
A: 2200 mg/kg

Q: For `CN(C)S(=O)(=O)CCCCCNC(=O)N(CCCl)N=O`, which LD50 is on record?
A: 250 mg/kg

Q: Which LD50 does the source give for `OCCNCCc1ccccc1` here?
A: 1870 mg/kg

Q: For `CCOC(=O)NNc1ccc(N(CC)CC(C)O)nn1` (stereo not drawn), which LD50 is on record?
A: 2060 mg/kg

Q: For `COC1CCC(OC2C(C)C(O)(C(C)C(=O)O)OC(CC3CC(OC)C(C)C4(O3)OC(C)(C3CCC(C5CCC(C6OC(C)(O)C(C)C(OC)C6C)O5)O3)C(OC)C4C)C2(C)OC)OC1C` (stereo not drawn), which LD50 is on record?
A: 7 mg/kg

Q: For `CC(=O)Cl`, which LD50 is on record?
A: 910 mg/kg

Q: Which LD50 does the source give for `CC1CC=CC2C3OC3(C)C(C)C3C(Cc4ccccc4)NC(=O)C23OC(=O)OC=CC(C)(O)C1=O` (stereo not drawn) here?
A: 9.1 mg/kg

Q: With `O=S(=O)(O)c1ccc(N2CCC(c3ccc(Cl)cc3)=N2)cc1` as the compound, how does the LD50 read?
A: 5530 mg/kg

Q: For `C=C(Cl)C(Cl)=C(Cl)Cl`, which LD50 is on record?
A: 421 mg/kg

Q: For `O=C1OCC(CCl)O1` (stereo not drawn), which LD50 is on record?
A: 80 mg/kg

Q: Which LD50 does the source give for `CN(C)CCN(Cc1ccsc1)c1ccccn1` here?
A: 525 mg/kg

Q: With `CCNc1cccc(C)c1` as the compound, how does the LD50 read?
A: 580 mg/kg

Q: With `Nc1ccc2cc(S(=O)(=O)O)cc(O)c2c1N=Nc1ccc(-c2ccc(N=Nc3ccc(O)c(C(=O)O)c3)cc2)cc1` as the compound, how does the LD50 read?
A: 22400 mg/kg

Q: With `CC1COC2(c3ccccc3Cl)c3cc(Cl)ccc3NC(=O)CN12` (stereo not drawn) as the compound, how does the LD50 read?
A: 4500 mg/kg

Q: With `CCC(C)C1(CC)C(O)=NC(=O)N=C1O` (stereo not drawn) as the compound, how does the LD50 read?
A: 78 mg/kg

Q: With `CN=NNc1ccc(C)cc1` as the compound, how does the LD50 read?
A: 381 mg/kg

Q: With `CCCCn1c(=O)n(CCC)c(=O)c2[nH]c(C)nc21` as the compound, how does the LD50 read?
A: 15 mg/kg

Q: For `O=C1OC(=O)c2ccc(Cl)c3cccc1c23`, which LD50 is on record?
A: 3460 mg/kg

Q: For `CCOP(=S)(OC)Oc1ccc([N+](=O)[O-])cc1` (stereo not drawn), which LD50 is on record?
A: 2.85 mg/kg

Q: For `CC(=O)Oc1ccc(C2(c3ccc(OC(C)=O)cc3)Oc3ccccc3NC2=O)cc1`, which LD50 is on record?
A: 8000 mg/kg

Q: For `O=Cc1ccc(O)cc1`, which LD50 is on record?
A: 2250 mg/kg

Q: For `COc1ccc(CC(=S)N(C)C)cc1`, which LD50 is on record?
A: 22 mg/kg

Q: With `O=C(Cl)C(c1ccccc1)c1ccccc1` as the compound, how does the LD50 read?
A: 6330 mg/kg

Q: For `NC(N)=O`, which LD50 is on record?
A: 350 mg/kg

Q: With `O=C(OCc1ccccc1)c1ccccc1O` as the compound, how does the LD50 read?
A: 2230 mg/kg

Q: For `CCC(=O)c1ccc(OCC(O)CO)c(OC)c1` (stereo not drawn), which LD50 is on record?
A: 1640 mg/kg

Q: With `COP(=S)(OC)Oc1ccc(Cl)c([N+](=O)[O-])c1` as the compound, how does the LD50 read?
A: 500 mg/kg

Q: Which LD50 does the source give for `CC(C)NC(=S)NC(C)C` here?
A: 450 mg/kg

Q: For `O=S(=O)(O)CO`, which LD50 is on record?
A: 3200 mg/kg

Q: With `CCOC(=O)c1c[n+](CC)c2n(c1=O)C(C)CCC2` (stereo not drawn) as the compound, how does the LD50 read?
A: 1350 mg/kg

Q: Which LD50 does the source give for `Cc1ccc2[nH]c(=S)[nH]c2c1` here?
A: 340 mg/kg

Q: For `NS(=O)(=O)C1CCCCC1`, which LD50 is on record?
A: 80 mg/kg

Q: For `COP(=S)(OC)SCc1nc(=O)o[nH]1`, which LD50 is on record?
A: 10 mg/kg

Q: Which LD50 does the source give for `CCCCOP(=O)(OCCO)OCCCC` here?
A: 915 mg/kg

Q: For `Cc1ccc2c(c1)c(-c1ccccc1)cn2N(CCN(C)C)CCN(C)C`, which LD50 is on record?
A: 980 mg/kg

Q: For `NC(=O)C1CCN(CCCN2c3ccccc3Sc3ccc(Cl)cc32)CC1`, which LD50 is on record?
A: 620 mg/kg

Q: For `CCCC1(c2cccc(O)c2)CCN(C)C1` (stereo not drawn), which LD50 is on record?
A: 231 mg/kg

Q: Which LD50 does the source give for `CC(=O)Nc1ccc([N+](=O)[O-])c(Cl)n1` here?
A: 1940 mg/kg

Q: Which LD50 does the source give for `C=CC(C)=O` here?
A: 23.1 mg/kg

Q: For `CCOC(=O)c1c(C)cc2nc(COC(=O)NC)n(-c3ccccc3Cl)c(=O)c2c1C`, which LD50 is on record?
A: 2500 mg/kg
